Experimental data published in paper PMC9481570, “A small molecule antagonist of SMN disrupts the interaction between SMN and RNAP II” (Nature Communications, 2022).

Assays:
mCherry-SMN = target: T1, mCherry-SMN (Homo sapiens, UniProt Q16637); assay: Fluorescence colocalization in U2OS cells, mCherry-SMN WT; format: cell-based; details: 10 μM, 24 h
T1 construct: the coding DNAs of full-length SMN, SND1 and TDRD3 were cloned into mCherry2-C1 or GFP-C1 vector; expressed in transfected cells; host or cells: U2OS
Experimental: (§1) U2OS cells (ATCC, HTB-96) were plated in a 35 mm FluoroDish with a 0.17 mm coverslip bottom (World Precision Instruments, FD35-100) for 12–24 h and transfected with 1.0 μg mCherry-SMN WT (wild-type) or mutant plasmids. Media was changed 4–6 h after transfection and cells were cultured for another 24 h. 10 μM CCVJ-Cmpd 1 was added for 24 h treatment. Then the treated cells were rinsed by PBS and the media replaced with phenol-free FluoroBright DMEM (Thermo Fisher, A1896701) for analysis by using Zeiss LSM880 microscopy.

SMN Tudor domain [1] = target: T2, SMN Tudor domain (Homo sapiens, UniProt Q16637); assay: Fluorescence of CCVJ-Cmpd 1 in solution on addition of SMN Tudor domain; format: binding; details: 10 μM SMN Tudor with 10 μM CCVJ-Cmpd 1, in solution
T2 construct: SMN (aa 82–147); His (N, cleaved yes); made in house; host or cells: E. coli BL21 (DE3) Codon plus RIL
Description: Supplementary Fig. 5 Interaction between Tudor domain of SMN and CCVJ-Cmpd 1 triggers fluorescence signals. a Fluorescence signals of 10 µM SMN Tudor, 10 µM CCVJ-Cmpd 1, and mixture of 10 µM SMN Tudor with 10 µM CCVJ-Cmpd 1 were detected by fluorescence microscope (Nikon, ECLIPSE Ti-E), under the excitation of blue light. The […]
the SMN Tudor domain protein. Exposure time: 1 s. b Fluorescence signals for addition of different concentrations of the SMN Tudor domain protein to 5 µM CCVJ-Cmpd 1 detected by Infinite M1000 Pro microplate reader (Tecan) with an excitation wavelength of 440 nm and an emission wavelength of 460-600 nm. Data shown are representative of three […]

[2] = test system: mCherry-SMN cage mutant (W102); assay: Fluorescence colocalization in U2OS cells, mCherry-SMN cage mutant; format: cell-based, human; details: 10 μM, 24 h, W102 mutated
Experimental: as §1

SMN Tudor domain [3] = target: T2, SMN Tudor domain; assay: ITC binding to Tudor domain of SMN; details: Supplementary Figs. 2, 4 and 11a (VP-ITC); read-out: Kd, ITC binding curve, Tudor domain of SMN
Description: The coding DNA fragments of following Tudor domains were cloned into pET28-MHL vector: SMN (aa 82–147), UHRF1 (aa 126–285), SMNDC1 (aa 53–130), TDRD3 (aa 554–611), SND1 (aa 650–910), TDRD2 (aa 327–420), FXR1 (aa 2–132), PHF1 (aa 28–87), SGF29 (aa 115–293), JMJD2A (aa 897–1101), 53BP1 (aa 1483–1606), SETDB1 (aa 190–410), LBR (aa 1–67), ZGPAT (aa 120–271). The coding regions of chromodomain of CBX7 (aa 8–62), PWWP domain of DNMT3A (aa 275–417), WD40 repeats of WDR5 (aa 24–334) and CW domain of ZCWPW2 (aa 21–78) were also subcloned into pET28-MHL vector to generate N-terminally His-tagged fusion protein. The MBT repeats of L3MBTL1 (aa 200–522) and L3MBTL2 (aa 170–625) were subcloned into pET28GST-LIC vector to generate N-terminally GST-His-tagged fusion protein. All the plasmids were generated by ligase independent cloning (Vazyme Biotech, C112 or ABclonal Technology, RK21020). […] The proteins were further purified by Superdex75 or Superdex200 gel-filtration column (GE Healthcare) in a buffer containing 20 mM Tris-HCl, pH 7.5, 150 mM NaCl and 1 mM DTT. For crystallization experiments, purified proteins were concentrated to 18 mg/mL for SMN, 23 mg/mL for UHRF1 and 10 mg/mL for TDRD3 in the gel-filtration buffer. All the mutations were introduced with the QuikChange II XL site-directed mutagenesis kit (Stratagene, 200522) and confirmed by DNA sequencing. Mutant proteins were also expressed in E. coli BL21 (DE3) Codon plus RIL and purified using the same procedures described above. The molecular weight of all protein samples was measured by mass spectrometry.
For the ITC measurement, the concentrated proteins were diluted into 20 mM Tris-HCl, pH 7.5, 150 mM NaCl (ITC buffer); the lyophilized compounds were dissolved in the same buffer, and the pH value was adjusted by adding 2 M NaOH or 2 M HCl. The compounds that could not be dissolved in the ITC buffer were dissolved in DMSO with the accessible highest concentration. Compound concentrations were calculated from the mass and the volume of the solvent. For the ITC assay with compound dissolved in DMSO, the protein was diluted by ITC buffer containing same final concentration of DMSO. All measurements were performed in duplicate at 25 °C, using a VP-ITC (MicroCal, Inc.), an iTC-200 (MicroCal, Inc.), or a Nano-ITC (TA, Inc.) microcalorimeter. The protein with a concentration of 50–100 μM was placed in the cell chamber, and the compounds with a concentration of 0.5–2 mM in syringe was injected in 25, 20, or 20 successive injections with a spacing of 180, 150, or 120 s for VP-ITC, iTC-200, or Nano-ITC, respectively, as previously described[30]–[32]. iTC-200 or Nano-ITC data were consistent with those from the VP-ITC instrument, based on ITC results of SMN-compound 1 detected by using all the instruments. Control experiments were performed under identical conditions to determine the heat signals that arise from injection of the compounds into the buffer. Data were fitted using the single-site binding model within the Origin software 7.0 package (MicroCal, Inc.) or the independent model within the Nano-Analyze software package (TA, Inc.).

SMN = target: T3, SMN (Homo sapiens, UniProt Q16637); details: physiological ligand; read-out: binding affinity (Kd) to SMN; cited from earlier work
T3 construct: endogenous in cells; host or cells: U2OS
T3 sequence (Q16637 whole entry): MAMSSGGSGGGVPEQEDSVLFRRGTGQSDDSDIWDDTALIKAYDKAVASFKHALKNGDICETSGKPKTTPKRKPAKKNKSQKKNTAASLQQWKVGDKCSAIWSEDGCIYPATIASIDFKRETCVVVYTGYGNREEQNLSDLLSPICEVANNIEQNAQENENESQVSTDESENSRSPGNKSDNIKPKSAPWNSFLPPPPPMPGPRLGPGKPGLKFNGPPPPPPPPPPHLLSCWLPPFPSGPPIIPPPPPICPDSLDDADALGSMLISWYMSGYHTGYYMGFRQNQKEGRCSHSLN

T2 sequence (Q16637 82-147): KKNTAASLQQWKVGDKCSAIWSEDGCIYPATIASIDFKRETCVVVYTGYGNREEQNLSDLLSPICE
T1 sequence (Q16637 whole entry): as the sequence (Q16637 whole entry) above

Row | Structure (SMILES) | colocalization with mCherry-SMN (mCherry-SMN) | fluorescence signal on addition of SMN Tudor domain protein (SMN Tudor domain [1]) | colocalization with mCherry-SMN cage mutant [2] | Kd (SMN Tudor domain [3]) [µM] | Kd (SMN) [µM]
1 | N#C/C(=C\c1cc2c3c(c1)CCCN3CCC2)C(=O)NCCNC(=O)Cn1c2c(c(=N)c3c1CCC3)CCC2 [CCVJ-Cmpd 1] | colocalized | enhanced | not observed | 22 ± 1 | –
2 | CN=C(NC)NCCC[C@H](N)C(=O)O [symmetric dimethylarginine] | – | – | – | – | 476
